Laboratory results: PubChem BioAssay AID248 (DTP/NCI, 2004)
Toxic doses and inconclusive results are not listed. No stated cut-off is given here; in the data, active means T/C of 150% or more; inactive means T/C below 125%.

System: L1210 leukemia ip in BDF1 mice, survival T/C
Assay: NCI In Vivo Anticancer Drug Screen. Data for tumor model L1210 Leukemia (intraperitoneal) in B6D2F1 (BDF1) mice
Details: endpoint: mean survival time, higher = longer survival
Outline: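 Read-out is survival time, reported as the treated-group measurement over the vehicle-control measurement.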

[1] = dose: 100.0 mg/kg/injection, schedule: Q01DX001 (ip), vehicle: saline
[2] = dose: 200.0 mg/kg/injection, schedule: Q01DX001 (ip), vehicle: saline
[3] = dose: 400.0 mg/kg/injection, schedule: Q01DX001 (ip), vehicle: saline
[4] = dose: 50.0 mg/kg/injection, schedule: Q01DX001 (ip), vehicle: carboxymethylcellulose (CMC)
[5] = dose: 100.0 mg/kg/injection, schedule: Q01DX001 (ip), vehicle: carboxymethylcellulose (CMC)
[6] = dose: 100.0 mg/kg/injection, schedule: Q04DX003 (ip), vehicle: saline with Tween-80
[7] = dose: 200.0 mg/kg/injection, schedule: Q04DX003 (ip), vehicle: saline with Tween-80
[8] = dose: 100.0 mg/kg/injection, schedule: Q01DX009 (ip), vehicle: saline with Tween-80
[9] = dose: 100.0 mg/kg/injection, schedule: Q04DX003 (ip), vehicle: saline
[10] = dose: 200.0 mg/kg/injection, schedule: Q04DX003 (ip), vehicle: saline
[11] = dose: 100.0 mg/kg/injection, schedule: Q04DX002 (ip), vehicle: Klucel (hydroxypropylcellulose) (HPC)
[12] = dose: 200.0 mg/kg/injection, schedule: Q04DX002 (ip), vehicle: Klucel (hydroxypropylcellulose) (HPC)
[13] = dose: 100.0 mg/kg/injection, schedule: Q04DX003 (ip), vehicle: Klucel (hydroxypropylcellulose) (HPC)
[14] = dose: 200.0 mg/kg/injection, schedule: Q04DX003 (ip), vehicle: Klucel (hydroxypropylcellulose) (HPC)

Measured: T/C

CC(=O)OCC(OC(C)=O)C(OC(C)=O)C(OC(C)=O)C(C#N)OC(C)=O (configuration not stated)
inactive: dose: 50.0 mg/kg/injection, schedule: Q01DX001 (ip), vehicle: saline 106 % of control | dose: 100.0 mg/kg/injection, schedule: Q01DX001 (ip), vehicle: other 115 % of control | [1] 103 % of control | dose: 200.0 mg/kg/injection, schedule: Q01DX001 (ip), vehicle: other 102 % of control | [2] 95 % of control | dose: 400.0 mg/kg/injection, schedule: Q01DX001 (ip), vehicle: other 96 % of control | [3] 91 % of control

O=C1CCCC(=S)N1
inactive: [4] 113 % of control | [5] 106 % of control

O=C(O)c1cccc([N+](=O)[O-])c1C(=O)c1ccccc1
inactive: [6] 95 % of control | [7] 97 % of control | dose: 400.0 mg/kg/injection, schedule: Q04DX003 (ip), vehicle: saline with Tween-80 93 % of control

CC(=O)NC(CCSCc1c2ccccc2c(C)c2ccccc12)C(=O)O (configuration not stated)
inactive: dose: 50.0 mg/kg/injection, schedule: Q01DX009 (ip), vehicle: saline with Tween-80 86 % of control | [8] 98 % of control | [6] 95 % of control | [7] 95 % of control

Cc1ccc(C(O)C(=O)O)c(C)c1 (configuration not stated)
inactive: dose: 100.0 mg/kg/injection, schedule: Q04DX002 (ip), vehicle: saline with Tween-80 101 % of control | dose: 200.0 mg/kg/injection, schedule: Q04DX002 (ip), vehicle: saline with Tween-80 89 % of control

CC(=O)SC(C)CC(=O)O (configuration not stated)
inactive: [9] 106 % of control | [10] 101 % of control

COC(=O)C1C2CC3c4[nH]c5cc(OC)ccc5c4CCN3CC2CC(O)C1OC (configuration not stated)
inactive: dose: 50.0 mg/kg/injection, schedule: Q04DX002 (ip), vehicle: Klucel (hydroxypropylcellulose) (HPC) 96 % of control | [11] 90 % of control

C[N+]1(C)C2CCCC1CCC2
inactive: dose: 3.12 mg/kg/injection, schedule: Q04DX002 (ip), vehicle: Klucel (hydroxypropylcellulose) (HPC) 93 % of control | dose: 6.25 mg/kg/injection, schedule: Q04DX002 (ip), vehicle: Klucel (hydroxypropylcellulose) (HPC) 104 % of control | dose: 12.5 mg/kg/injection, schedule: Q04DX002 (ip), vehicle: Klucel (hydroxypropylcellulose) (HPC) 90 % of control

O=C1c2cccc3cccc(c23)C(=O)N1CCCN1C(=O)c2cccc3cccc(c23)C1=O
inactive: [11] 88 % of control | [12] 98 % of control

Cc1c(CO)[nH]c(=S)[nH]c1=O
inactive: dose: 50.0 mg/kg/injection, schedule: Q01DX001 (ip), vehicle: Klucel (hydroxypropylcellulose) (HPC) 103 % of control | dose: 50.0 mg/kg/injection, schedule: Q04DX003 (ip), vehicle: Klucel (hydroxypropylcellulose) (HPC) 100 % of control | dose: 100.0 mg/kg/injection, schedule: Q01DX001 (ip), vehicle: Klucel (hydroxypropylcellulose) (HPC) 95 % of control | [13] 92 % of control | dose: 200.0 mg/kg/injection, schedule: Q01DX001 (ip), vehicle: Klucel (hydroxypropylcellulose) (HPC) 97 % of control | [14] 89 % of control

CCOc1ccc(NC(=O)OCCOc2ccccc2)cc1
inactive: dose: 100.0 mg/kg/injection, schedule: Q01DX009 (ip), vehicle: Klucel (hydroxypropylcellulose) (HPC) 104 % of control | dose: 200.0 mg/kg/injection, schedule: Q01DX009 (ip), vehicle: Klucel (hydroxypropylcellulose) (HPC) 100 % of control | dose: 400.0 mg/kg/injection, schedule: Q01DX009 (ip), vehicle: Klucel (hydroxypropylcellulose) (HPC) 94 % of control

CC(CO)(c1c[nH]c2ccccc12)c1c[nH]c2ccccc12
inactive: [4] 102 % of control | [5] 96 % of control | dose: 200.0 mg/kg/injection, schedule: Q01DX001 (ip), vehicle: carboxymethylcellulose (CMC) 96 % of control | dose: 400.0 mg/kg/injection, schedule: Q01DX001 (ip), vehicle: carboxymethylcellulose (CMC) 96 % of control

CCOC(OCC)c1nc(N)nc(N)c1-c1ccc(Cl)c(Cl)c1
inactive: dose: 11.0 mg/kg/injection, schedule: Q01DX009 (ip), vehicle: other 98 % of control | dose: 22.5 mg/kg/injection, schedule: Q01DX009 (ip), vehicle: other 101 % of control | dose: 45.0 mg/kg/injection, schedule: Q01DX009 (ip), vehicle: other 101 % of control | dose: 89.0 mg/kg/injection, schedule: Q01DX009 (ip), vehicle: saline 102 % of control | dose: 90.0 mg/kg/injection, schedule: Q01DX009 (ip), vehicle: other 115 % of control | [1] 100 % of control | dose: 134.0 mg/kg/injection, schedule: Q01DX009 (ip), vehicle: saline 119 % of control | [2] 107 % of control | dose: 300.0 mg/kg/injection, schedule: Q01DX009 (ip), vehicle: saline 101 % of control

CCCCC1CCCCC1
inactive: [8] 106 % of control | dose: 200.0 mg/kg/injection, schedule: Q01DX009 (ip), vehicle: saline with Tween-80 98 % of control | dose: 400.0 mg/kg/injection, schedule: Q01DX009 (ip), vehicle: saline with Tween-80 96 % of control

CC1(C)N=C(N)N=C(N)N1c1ccccc1F
inactive: dose: 25.0 mg/kg/injection, schedule: Q01DX009 (ip), vehicle: saline 93 % of control | dose: 38.0 mg/kg/injection, schedule: Q01DX001 (ip), vehicle: saline 101 % of control | dose: 50.0 mg/kg/injection, schedule: Q01DX009 (ip), vehicle: saline 91 % of control | dose: 75.0 mg/kg/injection, schedule: Q01DX001 (ip), vehicle: saline 101 % of control | dose: 75.0 mg/kg/injection, schedule: Q01DX009 (ip), vehicle: saline 110 % of control

O=C(O)c1ccc(N2C(=O)c3ccccc3C2=O)cc1[N+](=O)[O-]
inactive: dose: 100.0 mg/kg/injection, schedule: Q01DX009 (ip), vehicle: saline 103 % of control | [9] 100 % of control | dose: 200.0 mg/kg/injection, schedule: Q01DX009 (ip), vehicle: saline 108 % of control | [10] 104 % of control | dose: 400.0 mg/kg/injection, schedule: Q01DX009 (ip), vehicle: saline 107 % of control | dose: 400.0 mg/kg/injection, schedule: Q04DX003 (ip), vehicle: saline 107 % of control

O=C/C=C/c1cc([N+](=O)[O-])ccc1Cl
inactive: [11] 100 % of control | [12] 96 % of control | dose: 400.0 mg/kg/injection, schedule: Q04DX002 (ip), vehicle: Klucel (hydroxypropylcellulose) (HPC) 100 % of control

c1ccc2c(c1)ccc1[nH]c3ccccc3c12
inactive: [1] 120 % of control | [2] 96 % of control | [3] 93 % of control

NN=C1C(Cl)=C(Cl)C(Cl)=C1Cl
inactive: [13] 93 % of control | [14] 93 % of control | dose: 400.0 mg/kg/injection, schedule: Q04DX003 (ip), vehicle: Klucel (hydroxypropylcellulose) (HPC) 98 % of control
